# “Also recorded” adds a separate entry of the source.
# System: EL4 lymphoma
# Assay: Repeated treatments of mice bearing ip EL4 lymphoma
# Type: in vivo, C57BL/6 mice
# Set-up: Median survival time: unit not given here
# Conditions: for Median survival time: mice that died of the tumor; for Antitumor (curing) effect in words: injected intraperitoneally at different intervals after tumor cell innoculation; for Relative effectivity among derivatives: comparison in words
# Experimental: Four to six weeks old C57BL/6 mice were innoculated with the ascite lymphoma tumor EL4.BU. Daunomycin and its derivatives were injected intraperitoneally at different intervals after tumor cell innoculation.
# Some of the mice were totally cured, with no physical manifestation of any side effects of the tested derivatized daunomycin compounds.
# 10^6 EL4 lymphoma cells were innoculated ip into C57BL/6 males. Drug
# administration started 2 days later.
# *Refers to the group of mice that died of the tumor.
compound,measurement,setting,value
"COc1cccc2c1C(=O)c1c(O)c3c(c(O)c1C2=O)C[C@@](O)(C(C)=O)C[C@@H]3O[C@H]1C[C@H](NC(=O)[C@H](CCCCN)NC(=O)[C@H](CCCCN)NC(=O)[C@@H](N)CCCCN)[C@H](O)[C@H](C)O1 [(Lys)3 -DM, (lysyl)3 -daunomycin]",Long time survivors (over 60 days),"250 μg/mouse, 8 injections ip",6
same,Toxic deaths/No. mice treated,"250 μg/mouse, 8 injections ip",1/8
same,Median survival time,"250 μg/mouse, 8 injections ip",25
same,Antitumor (curing) effect in words,,"complete cure, or a significantly prolonged life span with no apparent toxic effects"
"COc1cccc2c1C(=O)c1c(O)c3c(c(O)c1C2=O)CC(O)(C(C)=O)CC3OC1CC(NC(=O)C(CCCNC(=N)N)NC(=O)C(N)CCCNC(=N)N)C(O)C(C)O1 (centres unmarked) [(arginyl)2 -daunomycin, arginyl-arginyl-daunomycin]",Antitumor (curing) effect in words,,"complete cure, or a significantly prolonged life span with no apparent toxic effects"
"COc1cccc2c1C(=O)c1c(O)c3c(c(O)c1C2=O)C[C@@](O)(C(C)=O)C[C@@H]3O[C@H]1C[C@H](NC(=O)C(N)Cc2ccc(O)c(O)c2)[C@H](O)[C@H](C)O1 (some centres unmarked) [DOPA-DM, dihydroxyphenylalanyl-daunomycin]",Long time survivors (over 60 days),"240 μg/mouse, 8 injections ip",3
same,Toxic deaths/No. mice treated,"240 μg/mouse, 8 injections ip",0/4
same,Median survival time,"240 μg/mouse, 8 injections ip",28
"COc1cccc2c1C(=O)c1c(O)c3c(c(O)c1C2=O)C[C@@](O)(C(C)=O)C[C@@H]3O[C@H]1C[C@H](N)[C@H](O)[C@H](C)O1 [Daunomycin, daunomycin]",Long time survivors (over 60 days),"20 μg/mouse, 5 injections ip",1
same,Toxic deaths/No. mice treated,"20 μg/mouse, 5 injections ip",1/8
same,Median survival time,"20 μg/mouse, 5 injections ip",17
same,Long time survivors (over 60 days),"20 μg/mouse, 6 injections ip",0
same,Toxic deaths/No. mice treated,"20 μg/mouse, 6 injections ip",4/8
same,Median survival time,"20 μg/mouse, 6 injections ip",15
same,Long time survivors (over 60 days),"25 μg/mouse, 4 injections ip",0
same,Toxic deaths/No. mice treated,"25 μg/mouse, 4 injections ip",2/8
same,Median survival time,"25 μg/mouse, 4 injections ip",14.5
same,Long time survivors (over 60 days),"25 μg/mouse, 5 injections ip",1
same,Toxic deaths/No. mice treated,"25 μg/mouse, 5 injections ip",2/8
same,Median survival time,"25 μg/mouse, 5 injections ip",24.5
same,Long time survivors (over 60 days),"30 μg/mouse, 4 injections ip",2
same,Toxic deaths/No. mice treated,"30 μg/mouse, 4 injections ip",4/8
same,Median survival time,"30 μg/mouse, 4 injections ip",25
same,Long time survivors (over 60 days),"40 μg/mouse, 1 injection ip",0
same,Toxic deaths/No. mice treated,"40 μg/mouse, 1 injection ip",2/8
same,Median survival time,"40 μg/mouse, 1 injection ip",19
same,Long time survivors (over 60 days),"40 μg/mouse, 4 injections ip",0
same,Toxic deaths/No. mice treated,"40 μg/mouse, 4 injections ip",4/8
same,Median survival time,"40 μg/mouse, 4 injections ip",18
same,Long time survivors (over 60 days),"50 μg/mouse, 2 injections ip",0
same,Toxic deaths/No. mice treated,"50 μg/mouse, 2 injections ip",2/8
same,Median survival time,"50 μg/mouse, 2 injections ip",19
same,Long time survivors (over 60 days),"60 μg/mouse, 1 injection ip",0
same,Toxic deaths/No. mice treated,"60 μg/mouse, 1 injection ip",6/8
same,Median survival time,"60 μg/mouse, 1 injection ip",18
same,Long time survivors (over 60 days),"80 μg/mouse, 1 injection ip",0
same,Toxic deaths/No. mice treated,"80 μg/mouse, 1 injection ip",8/8
same,Median survival time,"80 μg/mouse, 1 injection ip",17
same,Effects at high doses,"doses exceeding 70 μg/mouse in a single injection, or lower doses in multiple injections","acute toxicity marked by a generally wasted appearance and death, to no efficient depression of the growing tumor"
same,Antitumor (curing) effect in words,,no satisfactory curing effects; also recorded: very narrow border-zone between excessive toxicity and poor curative efficiency
"COc1cccc2c1C(=O)c1c(O)c3c(c(O)c1C2=O)C[C@@](O)(C(C)=O)C[C@@H]3OC1CC(NC(=O)C(N)CCN)C(O)C(C)O1.[Cl-].[Na+] (some centres unmarked) [Dbu-DM, diaminobutyryl-daunomycin]",Long time survivors (over 60 days),"650 μg/mouse, 8 injections ip",12
same,Toxic deaths/No. mice treated,"650 μg/mouse, 8 injections ip",0/14
same,Median survival time,"650 μg/mouse, 8 injections ip",31
same,Antitumor (curing) effect in words,,"complete cure, or a significantly prolonged life span with no apparent toxic effects"
COc1cccc2c1C(=O)c1c(O)c3c(c(O)c1C2=O)C[C@@](O)(C(C)=O)C[C@@H]3O[C@H]1C[C@H](NC(=O)[C@@H](N)Cc2cnc[nH]2)[C@H](O)[C@H](C)O1 [histidyl-daunomycin],Antitumor (curing) effect in words,,"complete cure, or a significantly prolonged life span with no apparent toxic effects"
(lysyl)2 -daunomycin [(Lys)2 -DM],Long time survivors (over 60 days),"250 μg/mouse, 8 injections ip",6
same,Toxic deaths/No. mice treated,"250 μg/mouse, 8 injections ip",1/8
same,Median survival time,"250 μg/mouse, 8 injections ip",24
same,Antitumor (curing) effect in words,,"complete cure, or a significantly prolonged life span with no apparent toxic effects"
(ornithyl)2 -daunomycin [(Orn)2 -DM],Long time survivors (over 60 days),"300 μg/mouse, 8 injections ip",6
same,Toxic deaths/No. mice treated,"300 μg/mouse, 8 injections ip",1/8
same,Relative effectivity among derivatives,,much more effective than with ornithine
same,Antitumor (curing) effect in words,,"complete cure, or a significantly prolonged life span with no apparent toxic effects"
(ornithyl)n -daunomycin where n=2 to 5 [(Orn)5 -DM],Long time survivors (over 60 days),"300 μg/mouse, 8 injections ip",2
same,Toxic deaths/No. mice treated,"300 μg/mouse, 8 injections ip",1/8
same,Median survival time,"300 μg/mouse, 8 injections ip",38
arginyl-daunomycin [Arg-DM],Long time survivors (over 60 days),"250 μg/mouse, 7 injections ip",3
same,Toxic deaths/No. mice treated,"250 μg/mouse, 7 injections ip",0/4
same,Median survival time,"250 μg/mouse, 7 injections ip",35
same,Long time survivors (over 60 days),"400 μg/mouse, 6 injections ip",3
same,Toxic deaths/No. mice treated,"400 μg/mouse, 6 injections ip",1/4
aspartyl-lysyl-daunomycin [Asp-Lys-DM],Long time survivors (over 60 days),"600 μg/mouse, 8 injections ip",6
same,Toxic deaths/No. mice treated,"600 μg/mouse, 8 injections ip",0/8
same,Median survival time,"600 μg/mouse, 8 injections ip",31
same,Relative effectivity among derivatives,,more effective than aspartyl-daunomycin
same,Antitumor (curing) effect in words,,"complete cure, or a significantly prolonged life span with no apparent toxic effects"
lysyl-daunomycin [Lys-DM],Long time survivors (over 60 days),"200 μg/mouse, 4 injections ip",0
same,Toxic deaths/No. mice treated,"200 μg/mouse, 4 injections ip",0/8
same,Median survival time,"200 μg/mouse, 4 injections ip",28
same,Long time survivors (over 60 days),"250 μg/mouse, 8 injections ip",5
same,Toxic deaths/No. mice treated,"250 μg/mouse, 8 injections ip",2/8
same,Median survival time,"250 μg/mouse, 8 injections ip",26
same,Antitumor (curing) effect in words,,"complete cure, or a significantly prolonged life span with no apparent toxic effects"
lysyl-leucyl-daunomycin,Relative effectivity among derivatives,,more effective than leucyl-daunomycin

# Reference: patent publication US4256632A, “Novel derivatives of daunomycin” (Yeda Research and Development Co. Ltd., priority 1978, dated 1981)
